Measurements from US20250074891A1 (Anaxis Pharma Pty Ltd., priority 2021, published 2025).
pKd: −log10 of the molar value.

What was measured:
Settings in all cases: Table 35
RIP1 = RIP1 (Homo sapiens (Human), UniProt Q13546); experiment: KINOMEscan binding assay, RIP1
RIP3 = RIP3 (Homo sapiens (Human), UniProt Q9Y572); experiment: KINOMEscan binding assay, RIP3
Method: (§1) Kinase assays. For most assays, kinase-tagged T7 phage strains were grown in parallel in 24-well blocks in an E. coli host derived from the BL21 strain. E. coli were grown to log-phase and infected with T7 phage from a frozen stock (multiplicity of infection=0.4) and incubated with shaking at 32° C. until lysis (90-150 minutes).
(§2) The Hill Slope was set to −1.

MLKL (full length) = MLKL (full length) (Homo sapiens (Human), UniProt Q8NB16); experiment: KINOMEscan binding assay, MLKL (full length)
Method: as §1, §2

Chain of RIP1 (Q13546 whole entry): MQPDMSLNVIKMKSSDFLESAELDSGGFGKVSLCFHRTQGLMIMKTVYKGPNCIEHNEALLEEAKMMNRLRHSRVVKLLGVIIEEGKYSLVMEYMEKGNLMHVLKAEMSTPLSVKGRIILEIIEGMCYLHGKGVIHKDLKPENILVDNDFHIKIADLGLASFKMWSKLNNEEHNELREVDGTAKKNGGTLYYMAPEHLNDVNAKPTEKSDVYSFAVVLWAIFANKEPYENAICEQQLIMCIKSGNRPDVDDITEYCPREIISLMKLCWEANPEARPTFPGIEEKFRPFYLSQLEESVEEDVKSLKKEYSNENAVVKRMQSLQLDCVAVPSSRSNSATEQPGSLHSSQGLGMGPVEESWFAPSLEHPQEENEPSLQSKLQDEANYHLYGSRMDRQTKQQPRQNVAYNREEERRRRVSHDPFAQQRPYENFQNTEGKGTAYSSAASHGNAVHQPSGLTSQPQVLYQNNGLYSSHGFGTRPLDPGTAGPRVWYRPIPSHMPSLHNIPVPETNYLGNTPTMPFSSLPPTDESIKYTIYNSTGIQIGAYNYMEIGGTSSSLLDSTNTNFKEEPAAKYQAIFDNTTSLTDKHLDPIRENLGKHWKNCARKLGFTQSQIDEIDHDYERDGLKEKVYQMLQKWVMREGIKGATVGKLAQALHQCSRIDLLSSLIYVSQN
Chain of MLKL (full length) (Q8NB16 whole entry): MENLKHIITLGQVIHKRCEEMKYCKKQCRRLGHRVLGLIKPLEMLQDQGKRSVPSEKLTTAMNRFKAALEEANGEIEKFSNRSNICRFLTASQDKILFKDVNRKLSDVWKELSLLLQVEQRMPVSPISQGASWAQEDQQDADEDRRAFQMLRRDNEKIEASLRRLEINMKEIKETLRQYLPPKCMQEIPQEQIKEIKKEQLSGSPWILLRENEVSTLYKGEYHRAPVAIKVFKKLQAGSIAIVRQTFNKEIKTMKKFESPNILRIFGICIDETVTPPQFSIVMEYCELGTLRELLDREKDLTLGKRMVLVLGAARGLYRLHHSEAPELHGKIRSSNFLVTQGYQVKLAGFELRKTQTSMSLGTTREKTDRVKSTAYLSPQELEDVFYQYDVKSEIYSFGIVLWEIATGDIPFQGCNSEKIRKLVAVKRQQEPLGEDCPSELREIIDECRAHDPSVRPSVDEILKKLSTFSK
Chain of RIP3 (Q9Y572 whole entry): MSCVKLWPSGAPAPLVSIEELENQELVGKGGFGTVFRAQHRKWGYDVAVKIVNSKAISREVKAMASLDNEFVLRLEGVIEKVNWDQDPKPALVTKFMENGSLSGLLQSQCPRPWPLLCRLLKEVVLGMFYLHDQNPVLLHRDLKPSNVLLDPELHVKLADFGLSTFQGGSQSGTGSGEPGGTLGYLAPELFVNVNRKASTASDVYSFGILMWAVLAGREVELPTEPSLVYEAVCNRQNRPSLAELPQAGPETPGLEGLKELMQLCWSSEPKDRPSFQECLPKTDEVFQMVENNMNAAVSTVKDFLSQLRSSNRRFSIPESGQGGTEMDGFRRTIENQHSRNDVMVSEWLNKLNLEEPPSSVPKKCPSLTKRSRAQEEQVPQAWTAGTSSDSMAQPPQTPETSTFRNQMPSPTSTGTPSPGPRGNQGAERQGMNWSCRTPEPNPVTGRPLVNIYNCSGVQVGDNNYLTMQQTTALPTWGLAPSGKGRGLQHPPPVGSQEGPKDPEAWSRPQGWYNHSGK

pKd (RIP1) | pKd (RIP3) | pKd (MLKL (full length)) | SMILES
< 4.52 | < 4.52 | > 8.00 | COCC(Oc1cc(-c2n[nH]c(Nc3cnccn3)c2C(N)=O)ccc1NS(=O)(=O)C(F)F)c1ccc(F)cc1 (stereo not shown) [Compound 319, 3-(4-((difluoromethyl)sulfonamido)-3-(1-(4-fluorophenyl)-2-methoxyethoxy)phenyl)-5-(pyrazin-2-ylamino)-1H-pyrazole-4-carboxamide]
< 4.52 | < 4.52 | 6.00 to 8.00 | CCS(=O)(=O)Nc1ccc(-c2n[nH]c(Nc3cc(C(F)(F)F)ccn3)c2C(N)=O)cc1OCc1ccc(F)cc1 [Compound 213]
< 4.52 | < 4.52 | > 8.00 | C[C@H](Oc1cc(-c2n[nH]c(Nc3ccc(C4CCOCC4)cn3)c2C(N)=O)ccc1NS(=O)(=O)C(F)F)c1ccc(F)cc1 [Compound 278]
< 4.52 | < 4.52 | > 8.00 | CCS(=O)(=O)Nc1ccc(-c2n[nH]c(Nc3cnccn3)c2C(N)=O)cc1OCCc1cccc(F)c1 [Compound 219, 3-(4-(ethylsulfonamido)-3-(3-fluorophenethoxy)phenyl)-5-(pyrazin-2-ylamino)-1H-pyrazole-4-carboxamide]
< 4.52 | < 4.52 | > 8.00 | COC[C@@H](Oc1cc(-c2n[nH]c(Nc3cc(C)on3)c2C(N)=O)ccc1NS(=O)(=O)C(F)F)c1ccc(F)cc1 [Compound 300, (S)-3-(4-((difluoromethyl)sulfonamido)-3-(1-(4-fluorophenyl)-2-methoxyethoxy)phenyl)-5-((5-methylisoxazol-3-yl)amino)-1H-pyrazole-4-carboxamide]
< 4.52 | < 4.52 | – | CCS(=O)(=O)Nc1ccc(-c2n[nH]c(Nc3cnccn3)c2C(N)=O)cc1OCC1CCN(C)CC1 [Compound 203, 3-(4-(ethylsulfonamido)-3-((1-methylpiperidin-4-yl)methoxy)phenyl)-5-(pyrazin-2-ylamino)-1H-pyrazole-4-carboxamide]
< 4.52 | < 4.52 | – | CCS(=O)(=O)Nc1ccc(-c2n[nH]c(Nc3ccc4cc(Cl)ccc4n3)c2C(N)=O)cc1OCc1ccc(F)cc1 [Compound 220, 5-((6-chloroquinolin-2-yl)amino)-3-(4-(ethylsulfonamido)-3-((4-fluorobenzyl)oxy)phenyl)-1H-pyrazole-4-carboxamide]
< 4.52 | < 4.52 | – | C[C@H](Oc1cc(-c2n[nH]c(Nc3cc(C45CC6CC(CC(C6)C4)C5)on3)c2C(N)=O)ccc1NS(=O)(=O)C(F)F)c1ccc(F)cc1 [Compound 304]
< 4.52 | < 4.52 | – | CCS(=O)(=O)Nc1ccc(-c2n[nH]c(Nc3cnccn3)c2C(N)=O)cc1OCc1ccc(C(F)(F)F)cc1 [Compound 216, 3-(4-(ethylsulfonamido)-3-((4-(trifluoromethyl)benzyl)oxy)phenyl)-5-(pyrazin-2-ylamino)-1H-pyrazole-4-carboxamide]
< 4.52 | < 4.52 | – | CCS(=O)(=O)Nc1ccc(-c2n[nH]c(Nc3cnccn3)c2C(N)=O)cc1OCc1ccc(OC(F)(F)F)cc1 [Compound 215, 3-(4-(ethylsulfonamido)-3-((4-(trifluoromethoxy)benzyl)oxy)phenyl)-5-(pyrazin-2-ylamino)-1H-pyrazole-4-carboxamide]

The next lines start with the compound.

SMILES | pKd (RIP1) | pKd (RIP3) | pKd (MLKL (full length))
CCS(=O)(=O)Nc1ccc(-c2n[nH]c(Nc3cc4ccccc4cn3)c2C(N)=O)cc1 [Compound 87, 3-(4-(ethylsulfonamido)phenyl)-5-(isoquinolin-3-ylamino)-1H-pyrazole-4-carboxamide] | < 4.52 | < 4.52 | > 8.00
NC(=O)c1c(-c2ccc(NS(=O)(=O)CC(F)(F)F)c(OCc3ccc(F)cc3)c2)n[nH]c1Nc1ccc(C(F)(F)F)nc1 [Compound 176, 3-(3-((4-fluorobenzyl)oxy)-4-((2,2,2-trifluoroethyl)sulfonamido)phenyl)-5-((6-(trifluoromethyl)pyridine-3-yl)amino)-1H-pyrazole-4-carboxamide] | < 4.52 | < 4.52 | > 8.00
NC(=O)c1c(-c2ccc(NS(=O)(=O)C(F)F)cc2)n[nH]c1Nc1cnccn1 [Compound 63, 3-(4-((difluoromethyl)sulfonamido)phenyl)-5-(pyrazin-2-ylamino)-1H-pyrazole-4-carboxamide] | < 4.52 | < 4.52 | > 8.00
NC(=O)c1c(-c2ccc(NS(=O)(=O)C(F)F)c(Oc3ccc(F)cc3)c2)n[nH]c1Nc1cnccn1 [Compound 177, 3-(4-((difluoromethyl)sulfonamido)-3-(4-fluorophenoxy)phenyl)-5-(pyrazin-2-ylamino)-1H-pyrazole-4-carboxamide] | < 4.52 | < 4.52 | > 8.00
CCS(=O)(=O)Nc1ccc(-c2n[nH]c(Nc3ccccn3)c2C(N)=O)cc1OCc1ccc(Cl)cc1 [Compound 39, 3-(3-((4-chlorobenzyl)oxy)-4-(ethylsulfon-amido)phenyl)-5-(pyridin-2-ylamino)-1H-pyrazole-4-carboxamide] | – | < 4.52 | > 8.00
NC(=O)c1c(-c2ccc(NS(=O)(=O)C(F)F)cc2)n[nH]c1Nc1ccc(C(F)(F)F)cn1 [Compound 145, 3-(4-((difluoromethyl)sulfonamido)phenyl)-5-((5-(trifluoromethyl)pyridine-2-yl)amino)-1H-pyrazole-4-carboxamide] | < 4.52 | < 4.52 | > 8.00
NC(=O)c1c(-c2ccc(NS(=O)(=O)C3CC3)cc2)n[nH]c1Nc1cnccn1 [Compound 68, 3-(4-(cyclopropanesulfonamido)phenyl)-5-(pyrazin-2-ylamino)-1H-pyrazole-4-carboxamide] | < 4.52 | < 4.52 | > 8.00
CN(C)CCS(=O)(=O)Nc1ccc(-c2n[nH]c(Nc3cccc(C(F)(F)F)n3)c2C(N)=O)cc1 [Compound 51, 3-(4-((2-(dimethylamino)ethyl)sulfonamido)phenyl)-5-((6-(trifluoromethyl)pyridin-2-yl)amino)-1H-pyrazole-4-carboxamide] | < 4.52 | < 4.52 | –
NC(=O)c1c(-c2ccc(NS(=O)(=O)Cc3cccc(C(F)(F)F)c3)cc2)n[nH]c1Nc1cnccn1 [Compound 83] | < 4.52 | < 4.52 | –
CCS(=O)(=O)Nc1ccc(-c2n[nH]c(Nc3ccccn3)c2C(N)=O)cc1OCC(C)C [Compound 37, 3-(4-(ethylsulfonamido)-3-isobutoxyphenyl)-5-(pyridin-2-ylamino)-1H-pyrazole-4-carboxamide] | < 4.52 | < 4.52 | –
CCS(=O)(=O)Nc1ccc(-c2n[nH]c(Nc3cccc(C(F)(F)F)n3)c2C(N)=O)cc1OCC1CCCCC1 [Compound 200] | < 4.52 | < 4.52 | –
CCS(=O)(=O)Nc1ccc(-c2n[nH]c(Nc3cccc(C(F)(F)F)n3)c2C(N)=O)cc1OCC(C)C [Compound 12, 3-(4-(ethylsulfonamido)-3-isobutoxyphenyl)-5-((6-(trifluoromethyl)pyridin-2-yl)amino)-1H-pyrazole-4-carboxamide] | < 4.52 | < 4.52 | –
COCCOc1cc(Nc2[nH]nc(-c3ccc(NS(=O)(=O)CCN(C)C)cc3)c2C(N)=O)ccn1 [Compound 116, 3-(4-((2-(dimethylamino)ethyl)sulfonamido)phenyl)-5-((2-(2-methoxyethoxy)pyridin-4-yl)amino)-1H-pyrazole-4-carboxamide] | < 4.52 | < 4.52 | –
CCS(=O)(=O)Nc1ccc(-c2n[nH]c(Nc3ccccn3)c2C(N)=O)cc1OCC1CCCCC1 [Compound 35, 3-(3-(cyclohexyl-methoxy)-4-(ethylsulfon-amido)phenyl)-5-(pyridin-2-ylamino)-1H-pyrazole-4-carboxamide] | < 4.52 | < 4.52 | –
CCS(=O)(=O)Nc1ccc(-c2n[nH]c(Nc3cnccn3)c2C(N)=O)cc1OCc1ccccc1F [Compound 2, 3-(4-(ethylsulfonamido)-3-((2-fluorobenzyl)oxy)phenyl)-5-(pyrazin-2-ylamino)-1H-pyrazole-4-carboxamide] | < 4.52 | < 4.52 | –
CC(C)(C)S(=O)(=O)Nc1ccc(-c2n[nH]c(Nc3cnccn3)c2C(N)=O)cc1 [Compound 69, 3-(4-((1,1-dimethylethyl)sulfonamido)phenyl)-5-(pyrazin-2-ylamino)-1H-pyrazole-4-carboxamide] | < 4.52 | < 4.52 | –
CCS(=O)(=O)Nc1ccc(-c2n[nH]c(Nc3ccccn3)c2C(N)=O)cc1OCc1cccc(Cl)c1 [Compound 38, 3-(3-((3-chlorobenzyl)oxy)-4-(ethylsulfon-amido)phenyl)-5-(pyridin-2-ylamino)-1H-pyrazole-4-carboxamide] | – | < 4.52 | > 8.00
CCS(=O)(=O)Nc1ccc(-c2n[nH]c(Nc3cccnc3)c2C(N)=O)cc1OCc1ccc(F)cc1 [Compound 6, 3-(4-(ethylsulfonamido)-3-((4-fluorobenzyl)oxy)phenyl) 5-(pyridin-3-ylamino)-1H-pyrazole-4-carboxamide] | < 4.52 | < 4.52 | –
CCS(=O)(=O)Nc1ccc(-c2n[nH]c(Nc3cnc4cc(Cl)ccc4n3)c2C(N)=O)cc1 [Compound 65, 5-((6-chloroquinoxalin-2-yl)amino)-3-(4-(ethylsulfonamido)phenyl)-1H-pyrazole-4-carboxamide] | < 4.52 | < 4.52 | –
CCS(=O)(=O)Nc1ccc(-c2n[nH]c(Nc3cccnc3C(F)(F)F)c2C(N)=O)cc1OCc1ccc(F)cc1 [Compound 192, 3-(4-(ethylsulfonamido)-3-((4-fluorobenzyl)oxy)phenyl)-5-((2-(trifluoromethyl)pyridine-3-yl)amino)-1H-pyrazole-4-carboxamide] | < 4.52 | < 4.52 | –
CCS(=O)(=O)Nc1ccc(-c2n[nH]c(Nc3ccc4ccc(Cl)cc4n3)c2C(N)=O)cc1OCc1ccc(F)cc1 [Compound 138, 5-((7-chloroquinolin-2-yl)amino)-3-(4-(ethylsulfonamido)-3-((4-fluorobenzyl)oxy)phenyl)-1H-pyrazole-4-carboxamide] | < 4.52 | < 4.52 | –
